These results are taken from ChEMBL document CHEMBL4428024, “Targeting the Bacterial Division Protein FtsZ” (J Med Chem, 2016).

≈ marks a conversion by molar mass, not a printed value.

One test deals with Bacillus subtilis. In words: Antimicrobial activity against Bacillus subtilis. Format: functional.
Test [1] can be described thus: Inhibition of ZipA-FtsZ protein-protein interaction (unknown origin) assessed as reduction in binding of fluorescein-labeled analogue of FtsZ C-terminal residues (367 to 383 residues) to C-terminal domain of ZipA (185 to 328 residues) by fluorescence polarization assay.
In test [2] the test system is Staphylococcus aureus. Description: Antimicrobial activity against Staphylococcus aureus. The test is classed as functional.
The next test has as its system Enterococcus faecalis. In words: Antimicrobial activity against Enterococcus faecalis. Format: functional.
Test [3] concerns the target T1, Cell division protein FtsZ (Staphylococcus aureus) (UniProt P0A031).
T1 sequence (whole entry): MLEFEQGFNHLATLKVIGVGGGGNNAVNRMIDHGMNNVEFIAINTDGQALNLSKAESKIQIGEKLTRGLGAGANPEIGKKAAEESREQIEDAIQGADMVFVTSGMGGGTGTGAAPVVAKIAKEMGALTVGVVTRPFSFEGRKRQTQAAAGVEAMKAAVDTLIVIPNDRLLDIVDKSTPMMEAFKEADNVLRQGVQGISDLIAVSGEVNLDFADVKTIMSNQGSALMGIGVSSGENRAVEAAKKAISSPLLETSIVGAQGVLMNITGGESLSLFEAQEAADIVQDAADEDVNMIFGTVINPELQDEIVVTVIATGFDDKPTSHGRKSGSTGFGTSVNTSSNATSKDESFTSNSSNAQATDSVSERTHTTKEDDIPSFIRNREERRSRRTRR
In words: Activation of Staphylococcus aureus FtsZ assessed as increase in GTPase activity by malachite green assay.

Test [4] concerns Mycolicibacterium smegmatis. Description: Antimicrobial activity against Mycobacterium smegmatis. Format: functional.
Test [5] deals with T2, Cell division protein FtsZ (Bacillus subtilis) (UniProt A5Z1V5).
T2 sequence (whole entry): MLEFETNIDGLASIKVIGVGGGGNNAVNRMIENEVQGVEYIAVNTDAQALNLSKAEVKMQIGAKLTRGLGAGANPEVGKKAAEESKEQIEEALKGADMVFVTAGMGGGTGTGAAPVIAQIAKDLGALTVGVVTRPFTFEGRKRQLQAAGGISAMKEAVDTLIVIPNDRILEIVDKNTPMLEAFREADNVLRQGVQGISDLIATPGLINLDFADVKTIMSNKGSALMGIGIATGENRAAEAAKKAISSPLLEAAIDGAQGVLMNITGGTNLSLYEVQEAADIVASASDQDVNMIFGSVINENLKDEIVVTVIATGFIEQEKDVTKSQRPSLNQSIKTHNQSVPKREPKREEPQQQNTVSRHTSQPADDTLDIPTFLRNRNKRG
In words: Inhibition of Bacillus subtilis FtsZ assessed as reduction in GTPase activity by malachite green assay.

In test [6] the target is T3, Cell division protein FtsZ (Escherichia coli K-12) (UniProt P0A9A6).
T3 sequence (whole entry): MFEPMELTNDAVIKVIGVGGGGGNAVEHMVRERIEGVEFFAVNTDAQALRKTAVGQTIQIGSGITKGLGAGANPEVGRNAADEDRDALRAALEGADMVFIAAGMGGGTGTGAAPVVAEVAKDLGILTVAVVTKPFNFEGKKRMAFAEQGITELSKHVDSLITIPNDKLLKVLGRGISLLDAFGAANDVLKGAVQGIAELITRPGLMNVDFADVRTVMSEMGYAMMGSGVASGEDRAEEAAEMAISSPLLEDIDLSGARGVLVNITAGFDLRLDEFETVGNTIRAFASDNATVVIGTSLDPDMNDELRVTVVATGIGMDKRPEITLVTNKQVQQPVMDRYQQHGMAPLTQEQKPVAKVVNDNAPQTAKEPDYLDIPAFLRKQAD
In words: Inhibition of Escherichia coli FtsZ assessed as reduction in GTPase activity by malachite green assay.

Test [7] concerns the target T3, Cell division protein FtsZ (Escherichia coli K-12).
Description: Binding affinity to Escherichia coli FtsZ
The test system of the next test is Escherichia coli. In words: Antimicrobial activity against Escherichia coli. The test is classed as functional.
In test [8] the target is T3, Cell division protein FtsZ (Escherichia coli K-12). In words: Inhibition of Escherichia coli FtsZ assessed as reduction in polymerization.
In test [9] the target is T4, Cell division protein FtsZ (Escherichia coli K-12, UniProt P0A9A6).
T4 sequence (P0A9A6 whole entry): T3 sequence (whole entry)
Description: Displacement of bis-ANS from Escherichia coli FtsZ.

Test [10] addresses T1, Cell division protein FtsZ (Staphylococcus aureus). In words: Inhibition of Staphylococcus aureus FtsZ assessed as reduction in GTPase activity by coupled enzyme assay.
Test [11] has as its system Staphylococcus aureus. Description: Antimicrobial activity against methicillin resistant Staphylococcus aureus. The test is classed as functional.
For test [12], the target named is T5, Cell division protein FtsZ (Mycobacterium tuberculosis) (UniProt P9WN95).
T5 sequence (whole entry): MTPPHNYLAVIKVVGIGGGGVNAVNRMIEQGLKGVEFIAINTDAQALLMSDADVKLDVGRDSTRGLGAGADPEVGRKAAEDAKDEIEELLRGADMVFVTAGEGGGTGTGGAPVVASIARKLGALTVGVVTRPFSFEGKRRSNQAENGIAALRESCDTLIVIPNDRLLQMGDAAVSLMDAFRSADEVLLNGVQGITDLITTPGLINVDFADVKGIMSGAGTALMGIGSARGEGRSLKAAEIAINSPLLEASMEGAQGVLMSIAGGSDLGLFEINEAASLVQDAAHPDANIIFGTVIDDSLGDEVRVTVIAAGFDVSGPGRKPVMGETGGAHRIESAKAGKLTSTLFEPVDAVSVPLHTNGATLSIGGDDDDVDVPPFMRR
Description: Inhibition of Mycobacterium tuberculosis FtsZ assessed as reduction in GTPase activity by malachite green assay.

Test [13] addresses T3, Cell division protein FtsZ (Escherichia coli K-12). Description: Inhibition of Escherichia coli FtsZ assessed as reduction in GTPase activity by coupled enzyme assay.
Test [14] deals with T5, Cell division protein FtsZ (Mycobacterium tuberculosis). In words: Inhibition of Mycobacterium tuberculosis FtsZ assessed as reduction in GTPase activity by coupled enzyme assay.

As for `O=C(O)c1ccc(-c2cccc(-c3c(-c4ccccc4)[nH]c4ccccc34)c2)cc1`, the MIC was 4 µg/mL (≈ 10.3 µM) against Bacillus subtilis, 4 to 8 µg/mL against Staphylococcus aureus [2] and 8 to 16 µg/mL against Enterococcus faecalis. For the same compound, in test [1], the IC50 was determined as 192 µM.
In the case of `NC(=O)c1c(F)ccc(OCc2nc3cc(Cl)cnc3s2)c1F`, the Activity in [3] is 0.1 µM. Moreover, in the test with Staphylococcus aureus [2], the MIC worked out at 1 µg/mL (≈ 2.81 µM).
With `CC(=O)O[C@@]12CO[C@@H]1C[C@H](O)[C@@]1(C)C(=O)[C@H](O)C3=C(C)[C@@H](OC(=O)/C=C/c4ccc5ccccc5c4)C[C@@](O)([C@@H](OC(=O)c4ccccc4)[C@H]21)C3(C)C`, the INH in test [4] is 60 µM; with Bacillus subtilis, 38 µM; in [5], 35 µM.
For `O=C/C=C/c1ccccc1` [CINNAMALDEHYDE], the INH in the test on Bacillus subtilis worked out at 500 mg/L; in test [6] it was 5.81 µM; in the test with Escherichia coli, 1000 mg/L; in the test with Staphylococcus aureus [2], 250 mg/L. The compound further returned a Ka in test [7] of 1 µM.
`COc1ccc2cc3[n+](cc2c1OC)CCc1cc2c(cc1-3)OCO2.[Cl-]` [BERBERINE CHLORIDE]: the values for the MIC against Bacillus subtilis and against Staphylococcus aureus [2] were 100 µg/mL and 32 to 128 µg/mL, respectively. In addition, the INH was 16 µM in [6] and >400 µM in the test on Escherichia coli. Further, the half-maximal inhibitory concentration (IC50) in [8] came out at 10 µM. This compound also registered a Kd in [9] of 0.023 µM.
For the compound `CCC(CC)c1cc([C@H]2CN3CC[C@H]2C[C@@H]3CN)nc(-c2ccncc2)n1`, the MIC turned out to be 13.1 µg/mL (≈ 35.8 µM) against Escherichia coli and 6.53 µg/mL (≈ 17.9 µM) against Staphylococcus aureus [2]. The INH in test [10] stood at 37.5 µM.
Consider `Oc1cc(O)c2c(c1)C/C(Cl)=C\Cc1cc(c(Cl)cc1O)Oc1c(O)cc(cc1O)C/C(Cl)=C\Cc1cc(c(Cl)cc1O)O2`, for which the values for the INH (in test [6]; with Staphylococcus aureus [11]) were 9.88 µM and 1.5 µg/mL, respectively. For the same compound, in the test on Staphylococcus aureus [2], the minimum inhibitory concentration (MIC) is 1.8 µg/mL (≈ 2.65 µM).
Take `CCN(CC)CCNc1nc(/C=C/c2ccc(Cl)cc2)nc2cc3ccccc3cc12`: the minimum inhibitory concentration (MIC) was 1.08 µg/mL (≈ 2.51 µM) against Bacillus subtilis and >34 µg/mL against Escherichia coli. For the same compound, the half-maximal inhibitory concentration (IC50) in test [8] and in test [13] was 15 µM each time. For the same compound, the figures for the INH (in [12]; in the test with Staphylococcus aureus [11]; in test [14]) were 50 µM, 4.31 µg/mL and 50 µM, respectively.
